Laboratory results from the NIST ThermoML archive (doi:10.1021/je100932m).
± gives the expanded uncertainty stated by the source.

Conditions: Liquid

vapor or sublimation pressure (337.57 K)	vapor or sublimation pressure (329.97 K)	Compound
101.3 ± 0.86 kPa		CO [methanol]
	101.3 ± 0.86 kPa	COC(C)=O [methyl ethanoate]
